Read-outs that look alike come from different tables or passages of the source.
Tested on: multiple myeloma cells (OPM-2)
Assay: Cancer cell line proliferation assay, OPM-2
Type: cell-based
Conditions: Homo sapiens, OPM-2 cells, 72 hours, CellTiter Glo, n = 2
Protocol: The impact of the compound of Examples 7 and 14 on cancer cell proliferation was determined using patient derived NUT midline carcinoma cells (11060), multiple myeloma cells (OPM-2, DSMZ) and biphenotypic B myelomonocytic leukaemia cells (MV-4-11, ATCC) in a 72 hour proliferation assay. 11060 and OPM-2 cells were maintained in RPMI 1640 medium (Invitrogen) supplemented with 10% HI-FBS (Heat-Inactivated Fetal Bovine Serum, Hyclone) and 2 mM L-glutamine (Invitrogen) at 37° C. and an atmosphere of 5% CO2. MV-4-11 cells were maintained in IMDM media supplemented with 10% HI-FCS, 2 mM L-glutamine, 1× Non-essential amino acids (Invitrogen) and 1× sodium pyruvate (1 mM) (Invitrogen). Cells were diluted to 1.11×10^5 cells/mL and 90 μL/well plated into black sided, clear bottomed 96 well tissue culture plates (Corning), using growth media supplemented with penicillin/streptomycin (Invitrogen). Cells were incubated overnight at 37° C. and in one plate, ATP levels were measured using the CellTiter Glo assay (Promega) according to the manufacturer's instructions, to give a baseline reading (t=0). 3-fold serial dilutions of compounds ranging from 6 mM to 0.3 μM were prepared in 100% DMSO. The DMSO dilution series was diluted 20-fold in growth media before 10 μl of the resulting dilutions were added to the appropriate wells of the remaining cell plates. The final compound concentrations in the wells ranged from 30 μM to 1.5 nM in 0.5% DMSO. Cells were incubated with compounds for 72 hours before assaying for ATP content using CellTiter Glo (t=72). CellTiter Glo data from each t=72 time point was normalised to the relevant t=0 time point data, and expressed as % t=0.

IC50 (full curve fit, read-out: Cellular Proliferation: pIC50 (converted)): 200 nM
IC50 (read-out: Cellular Proliferation: gpIC50 (converted)): 126 nM
SMILES: CC(=O)N1c2ccc(C(N)=O)cc2[C@H](Nc2ncc(Cl)cn2)C[C@@H]1C [Example 14, (2S,4R)-1-acetyl-4-((5-chloropyrimidin-2-yl)amino)-2-methyl-1,2,3,4-tetrahydroquinoline-6-carboxamide]

— patent publication US10059699B2, “Tetrahydroquinoline derivatives as bromodomain inhibitors” (GlaxoSmithKline Intellectual Property (No.2) Limited, priority 2014, dated 2018)
